Assay results published in patent US11540517B2, “Active compound combinations having insecticidal/acaricidal properties” (Bayer Aktiengesellschaft, priority 2017, dated 2023).

Legend:
Type in all cases: in vivo
Tetranychus urticae = Tetranychus urticae - spray test OP-resistant; conditions: mortality
Description: (§1) The expected efficacy of a given combination of two compounds is calculated as follows (see Colby, S. R., “Calculating Synergistic and antagonistic Responses of Herbicide Combinations”, Weeds 15, pp. 20-22, 1967): • If • X is the efficacy expressed in % mortality of the untreated control for test compound A at a concentration of m ppm respectively m g/ha, • Y is the efficacy expressed in % mortality of the untreated control for test compound B at a concentration of n ppm respectively n g/ha, • E is the efficacy expressed in % mortality of the untreated control using the mixture of A and B at m and n ppm respectively m and n g/ha, • then is
(§2) [formula] • If the observed insecticidal efficacy of the combination is higher than the one calculated as “E”, then the combination of the two compounds is more than additive, i.e. there is a synergistic effect.
Tetranyechus urticae—Spray Test OP-Resistant
Solvent: 78.0 parts by weight acetone
1.5 parts by weight dimethylformamide
Emulsifier: alkylarylpolyglycol ether
To produce a suitable preparation of active compound, 1 part by weight of active compound is mixed with the stated amount of solvents and is diluted with water, containing an emulsifier concentration of 1000 ppm, to the desired concentration. Further test concentrations are prepared by dilution with emulsifier containing water.
French bean (Phaseolus vulgaris) leaf disks infected with all instars of the two spotted spidermite (Tetranychus urticae), are sprayed with a preparation of the active ingredient of the desired concentration.
After the specified period of time, mortality in % is determined. 100% means all spider mites have been killed and 0% means none of the spider mites have been killed. The mortality values determined thus are recalculated using the Colby-formula (see above).

Spodoptera frugiperda = Spodoptera frugiperda - spray test; conditions: mortality
Description: as §1, §2
Spodoptera frugiperda—Spray Test
(§3) Solvent: 7 parts by weight of dimethylformamide
(§4) Emulsifier: alkylaryl polyglycol ether
(§5) To produce a suitable preparation of active compound, 1 part by weight of active compound is mixed with the stated amount of solvent and is diluted with water, containing an emulsifier concentration of 1000 ppm, to the desired concentration. Further test concentrations are prepared by dilution with emulsifier containing water.
Cotton leaves (Gossypium hirsutum) are treated by being sprayed with the preparation of the active compound of the desired concentration and are infested with caterpillars of the fall army worm (Spodoptera frugiperda).
After the specified period of time mortality in % is determined. 100% means all the caterpillars have been killed and 0% means none of the caterpillars have been killed. The mortality values determined thus are recalculated using the Colby-formula (see above).

Phaedon cochleariae = Phaedon cochleariae - spray test; conditions: mortality
Description: as §1, §2
Phaedon cochleariae—Spray Test
as §3, §4, §5
After the specified period of time mortality in % is determined. 100% means all the beetle larvae have been killed and 0% means none of the beetle larvae have been killed. The mortality values determined thus are recalculated using the Colby-formula (see above).

Aphis gossypii = Aphis gossypii - spray test; conditions: 0.4 ppm, mortality
Description: as §1, §2
Aphis gossypii—Spray Test
as §3, §4
To produce a suitable preparation of active compound, 1 part by weight of active compound is mixed with the stated amount of solvent and is diluted with water, containing an emulsifier concentration of 1000 ppm, to the desired concentration. […]
After the specified period of time the mortality in % is determined. […] The mortality values determined thus are recalculated using the Colby-formula (see above).

CN1COCN(Cc2cnc(Cl)s2)C1=N[N+](=O)[O-] (mixture of isomers) [Thiametoxam, (EZ)-3-(2-chloro-1,3-thiazol-5-ylmethyl)-5-methyl-1,3,5-oxadiazinan-4-ylidene(nitro)amine]
Efficacy in % after 2 days (Tetranychus urticae; 0.1 g ai/ha): 0%
Efficacy in % after 2 days (Tetranychus urticae; 0.4 g ai/ha): 0%
Efficacy in % after 2 days (Tetranychus urticae; 1.6 g ai/ha): 0%

CNC(=N[N+](=O)[O-])NCC1CCOC1 (racemic) [Dinotefuran, (EZ)-(RS)-1-methyl-2-nitro-3-(tetrahydro-3-furylmethyl)guanidine]
Efficacy in % after 6 days (Tetranychus urticae; 0.2 g ai/ha, after 6 days): 0%

C/C(=N\C#N)N(C)Cc1ccc(Cl)nc1 [Acetamiprid, (E)-N^1-[(6-chloro-3-pyridyl)methyl]-N^2-cyano-N-methylacetamidine]
Efficacy in % after 2 days (Spodoptera frugiperda; 48 ppm): 0%
Efficacy in % after 3 days (Spodoptera frugiperda; 48 ppm): 0%
Efficacy in % after 6 days (Spodoptera frugiperda; 48 ppm): 10%
Efficacy in % after 1 day (Spodoptera frugiperda; 96 ppm): 10%
Efficacy in % after 2 days (Spodoptera frugiperda; 96 ppm): 20%
Efficacy in % after 3 days (Spodoptera frugiperda; 96 ppm): 40%
Efficacy in % after 6 days (Spodoptera frugiperda; 96 ppm): 50%
Efficacy in % after 2 days (Tetranychus urticae; 0.4 g ai/ha): 0%
Efficacy in % after 2 days (Tetranychus urticae; 1.6 g ai/ha): 0%
Efficacy in % after 2 days (Tetranychus urticae; 6.4 g ai/ha): 0%

CN/C(=N\[N+](=O)[O-])NCc1cnc(Cl)s1 [Clothianidin, (E)-1-(2-chloro-1,3-thiazol-5-ylmethyl)-3-methyl-2-nitroguanidine]
Efficacy in % after 1 day (Phaedon cochleariae; 2 ppm): 10%
Efficacy in % after 2 days (Phaedon cochleariae; 2 ppm): 10%
Efficacy in % after 3 days (Phaedon cochleariae; 2 ppm): 25%
Efficacy in % after 3 days (Phaedon cochleariae; 4 ppm): 60%
Efficacy in % after 1 day (Phaedon cochleariae; 8 ppm): 45%
Efficacy in % after 2 days (Phaedon cochleariae; 8 ppm): 55%
Efficacy in % after 3 days (Phaedon cochleariae; 8 ppm): 75%
Efficacy in % after 3 days (Spodoptera frugiperda; 24 ppm): 40%
Efficacy in % after 1 day (Spodoptera frugiperda; 48 ppm): 10%

Cc1cc(F)c(N=C2SCC(=O)N2CC(F)(F)F)cc1[S+]([O-])CC(F)(F)F (centres unmarked) [Cpd of formula (I)]
Efficacy in % after 1 day (Phaedon cochleariae; 1 ppm): 0%
Efficacy in % after 2 days (Phaedon cochleariae; 1 ppm): 0%
Efficacy in % after 3 days (Phaedon cochleariae; 1 ppm): 0%
Efficacy in % after 3 days (Phaedon cochleariae; 2 ppm): 0%
Efficacy in % after 1 day (Phaedon cochleariae; 4 ppm): 0%
Efficacy in % after 2 days (Phaedon cochleariae; 4 ppm): 10%
Efficacy in % after 3 days (Phaedon cochleariae; 4 ppm): 10%
Efficacy in % after 3 days (Spodoptera frugiperda; 2.4 ppm): 0%
Efficacy in % after 1 day (Spodoptera frugiperda; 4.8 ppm): 0%
Efficacy in % after 2 days (Spodoptera frugiperda; 4.8 ppm): 0%
Efficacy in % after 3 days (Spodoptera frugiperda; 4.8 ppm): 0%
Efficacy in % after 6 days (Spodoptera frugiperda; 4.8 ppm): 0%
Efficacy in % after 1 day (Spodoptera frugiperda; 9.6 ppm): 0%
Efficacy in % after 2 days (Spodoptera frugiperda; 9.6 ppm): 0%
Efficacy in % after 3 days (Spodoptera frugiperda; 9.6 ppm): 0%
Efficacy in % after 6 days (Spodoptera frugiperda; 9.6 ppm): 0%
Efficacy in % after 2 days (Tetranychus urticae; 0.1 g ai/ha): 0%

O=C1C=C(N(Cc2ccc(Cl)nc2)CC(F)F)CO1 [Flupyradifurone, 4-[(6-chloro-3-pyridylmethyl)(2,2-difluoroethyl)amino]furan-2(5H)-one]
Efficacy in % after 2 days (Tetranychus urticae; 0.4 g ai/ha): 0%
Efficacy in % after 2 days (Tetranychus urticae; 1.6 g ai/ha): 0%
Efficacy in % after 2 days (Tetranychus urticae; 6.4 g ai/ha): 0%

O=[N+]([O-])N=C1NCCN1Cc1cnc(Cl)s1 [Imidaclothiz, (EZ)-1-(2-chloro-1,3-thiazol-5-ylmethyl)-N-nitroimidazolidin-2-ylideneamine]
Efficacy in % after 6 days (Aphis gossypii): 20%
Efficacy in % after 2 days (Tetranychus urticae; 0.8 g ai/ha): 0%
Efficacy in % after 2 days (Tetranychus urticae; 3.2 g ai/ha): 0%
Efficacy in % after 2 days (Tetranychus urticae; 12.8 g ai/ha): 0%
